Experimental data taken from PubChem BioAssay (NCI).
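Dose response: 5 concentrations. Exposure: 48 h. Format: 96-well plates. Endpoint: linear interpolation; highest concentration if not reached. Here, GI50 denotes the concentration required for 50% inhibition of growth. Definition used: TGI = concentration required for complete inhibition of growth.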 Peptide text beside a SMILES is read from it. * marks the point of attachment. Boc = CC(C)(C)OC(=O)*

How the values were obtained:
Assay in all cases: DTP human tumour cell line panel, 48 h
786-0 renal = tested on: 786-0 renal
A498 renal = tested on: A498 renal
A549 NSCLC = tested on: A549 NSCLC
BT-549 breast = tested on: BT-549 breast
CAKI-1 renal = tested on: CAKI-1 renal
CCRF-CEM leukemia = tested on: CCRF-CEM leukemia
COLO 205 colon = tested on: COLO 205 colon
DU-145 prostate = tested on: DU-145 prostate
EKVX NSCLC = tested on: EKVX NSCLC
HCC-2998 colon = tested on: HCC-2998 colon
HCT-116 colon = tested on: HCT-116 colon
HCT-15 colon = tested on: HCT-15 colon
HOP-62 NSCLC = tested on: HOP-62 NSCLC
HOP-92 NSCLC = tested on: HOP-92 NSCLC
HS 578T breast = tested on: HS 578T breast
HT29 colon = tested on: HT29 colon
IGROV1 ovarian = tested on: IGROV1 ovarian
K-562 leukemia = tested on: K-562 leukemia
KM12 colon = tested on: KM12 colon
LOX IMVI melanoma = tested on: LOX IMVI melanoma
M14 melanoma = tested on: M14 melanoma
MALME-3M melanoma = tested on: MALME-3M melanoma
MCF7 breast = tested on: MCF7 breast
MDA-MB-231 breast = tested on: MDA-MB-231 breast
MDA-MB-435 = tested on: MDA-MB-435
MOLT-4 leukemia = tested on: MOLT-4 leukemia
NCI-H226 lung = tested on: NCI-H226 lung
NCI-H23 lung = tested on: NCI-H23 lung
NCI-H460 lung = tested on: NCI-H460 lung
NCI-H522 lung = tested on: NCI-H522 lung
NCI/ADR-RES ovarian = tested on: NCI/ADR-RES ovarian
OVCAR-3 ovarian = tested on: OVCAR-3 ovarian
OVCAR-4 ovarian = tested on: OVCAR-4 ovarian
OVCAR-5 ovarian = tested on: OVCAR-5 ovarian
OVCAR-8 ovarian = tested on: OVCAR-8 ovarian
PC-3 prostate = tested on: PC-3 prostate
RPMI-8226 leukemia = tested on: RPMI-8226 leukemia
RXF 393 renal = tested on: RXF 393 renal
SF-268 CNS = tested on: SF-268 CNS
SF-295 CNS = tested on: SF-295 CNS
SF-539 CNS = tested on: SF-539 CNS
SK-MEL-2 melanoma = tested on: SK-MEL-2 melanoma
SK-MEL-28 melanoma = tested on: SK-MEL-28 melanoma
SK-MEL-5 melanoma = tested on: SK-MEL-5 melanoma
SK-OV-3 ovarian = tested on: SK-OV-3 ovarian
SN12C renal = tested on: SN12C renal
SNB-19 CNS = tested on: SNB-19 CNS
SNB-75 CNS = tested on: SNB-75 CNS
SW-620 colon = tested on: SW-620 colon
T-47D breast = tested on: T-47D breast
TK-10 renal = tested on: TK-10 renal
U251 CNS = tested on: U251 CNS
UACC-257 melanoma = tested on: UACC-257 melanoma
UACC-62 melanoma = tested on: UACC-62 melanoma
UO-31 renal = tested on: UO-31 renal

Cc1c(C)c2ccc(OC/C=C3\CCC(=O)O3)cc2oc1=O
GI50 (786-0 renal): 5.35 µM
TGI (786-0 renal): 20.8 µM
GI50 (A498 renal): 17.9 µM
TGI (A498 renal): 37.1 µM
GI50 (A549 NSCLC): 16.9 µM
TGI (A549 NSCLC): 31.9 µM
GI50 (BT-549 breast): 15.2 µM
TGI (BT-549 breast): 28.9 µM
GI50 (CAKI-1 renal): 15.3 µM
TGI (CAKI-1 renal): 30.6 µM
GI50 (CCRF-CEM leukemia): 17.4 µM
TGI (CCRF-CEM leukemia): 58.4 µM
GI50 (COLO 205 colon): 16.4 µM
TGI (COLO 205 colon): 48.9 µM
GI50 (DU-145 prostate): 12.2 µM
TGI (DU-145 prostate): 26.1 µM
GI50 (EKVX NSCLC): 18.7 µM
TGI (EKVX NSCLC): 40 µM
GI50 (HCC-2998 colon): 18.3 µM
TGI (HCC-2998 colon): 33 µM
GI50 (HCT-116 colon): 13.3 µM
TGI (HCT-116 colon): 26.3 µM
GI50 (HCT-15 colon): 5.4 µM
TGI (HCT-15 colon): 20.2 µM
GI50 (HOP-62 NSCLC): 15 µM
TGI (HOP-62 NSCLC): 28.8 µM
GI50 (HOP-92 NSCLC): 15 µM
TGI (HOP-92 NSCLC): 31.2 µM
GI50 (HS 578T breast): 20.2 µM
TGI (HS 578T breast): 55.9 µM
GI50 (HT29 colon): 16.6 µM
TGI (HT29 colon): 35.3 µM
GI50 (IGROV1 ovarian): 14.2 µM
TGI (IGROV1 ovarian): 28.9 µM
GI50 (K-562 leukemia): 29.1 µM
TGI (K-562 leukemia): 88.7 µM
GI50 (KM12 colon): 13.8 µM
TGI (KM12 colon): 31.3 µM
GI50 (LOX IMVI melanoma): 15.2 µM
TGI (LOX IMVI melanoma): 29.4 µM
GI50 (M14 melanoma): 11.4 µM
TGI (M14 melanoma): 24.7 µM
GI50 (MALME-3M melanoma): 11.9 µM
TGI (MALME-3M melanoma): 26.7 µM
GI50 (MCF7 breast): 11 µM
TGI (MCF7 breast): 32.5 µM
GI50 (MDA-MB-231 breast): 16 µM
TGI (MDA-MB-231 breast): 30 µM
GI50 (MDA-MB-435): 17.1 µM
TGI (MDA-MB-435): 34.6 µM
GI50 (MOLT-4 leukemia): 19.8 µM
TGI (MOLT-4 leukemia): > 100 µM
GI50 (NCI-H226 lung): 18.9 µM
TGI (NCI-H226 lung): 40.8 µM
GI50 (NCI-H23 lung): 15.4 µM
TGI (NCI-H23 lung): 29.6 µM
GI50 (NCI-H460 lung): 16.4 µM
TGI (NCI-H460 lung): 35.6 µM
GI50 (NCI-H522 lung): 10.2 µM
TGI (NCI-H522 lung): 23.7 µM
GI50 (NCI/ADR-RES ovarian): 16.9 µM
TGI (NCI/ADR-RES ovarian): 35.7 µM
GI50 (OVCAR-3 ovarian): 15.8 µM
TGI (OVCAR-3 ovarian): 30.3 µM
GI50 (OVCAR-4 ovarian): 12.6 µM
TGI (OVCAR-4 ovarian): 28.9 µM
GI50 (OVCAR-5 ovarian): 16.5 µM
TGI (OVCAR-5 ovarian): 31.1 µM
GI50 (OVCAR-8 ovarian): 16.5 µM
TGI (OVCAR-8 ovarian): 34.8 µM
GI50 (PC-3 prostate): 13.4 µM
TGI (PC-3 prostate): 31 µM
GI50 (RPMI-8226 leukemia): 6.1 µM
TGI (RPMI-8226 leukemia): 40.9 µM
GI50 (RXF 393 renal): 14.2 µM
TGI (RXF 393 renal): 28.2 µM
GI50 (SF-268 CNS): 17 µM
TGI (SF-268 CNS): 46.1 µM
GI50 (SF-295 CNS): 20.5 µM
TGI (SF-295 CNS): 45 µM
GI50 (SF-539 CNS): 16.1 µM
TGI (SF-539 CNS): 31.7 µM
GI50 (SK-MEL-2 melanoma): 14.2 µM
TGI (SK-MEL-2 melanoma): 30.7 µM
GI50 (SK-MEL-28 melanoma): 14.3 µM
TGI (SK-MEL-28 melanoma): 28.1 µM
GI50 (SK-MEL-5 melanoma): 17.4 µM
TGI (SK-MEL-5 melanoma): 32.8 µM
GI50 (SK-OV-3 ovarian): 26.5 µM
TGI (SK-OV-3 ovarian): 93.1 µM
GI50 (SN12C renal): 18.2 µM
TGI (SN12C renal): 43 µM
GI50 (SNB-19 CNS): 17.2 µM
TGI (SNB-19 CNS): 35.9 µM
GI50 (SNB-75 CNS): 12.3 µM
TGI (SNB-75 CNS): 24.8 µM
GI50 (SW-620 colon): 18 µM
TGI (SW-620 colon): 40 µM
GI50 (T-47D breast): 14.5 µM
TGI (T-47D breast): 47.8 µM
GI50 (TK-10 renal): 9.79 µM
TGI (TK-10 renal): 23 µM
GI50 (U251 CNS): 15.7 µM
TGI (U251 CNS): 29.3 µM
GI50 (UACC-257 melanoma): 15.9 µM
TGI (UACC-257 melanoma): 31.3 µM
GI50 (UACC-62 melanoma): 14.5 µM
TGI (UACC-62 melanoma): 28.3 µM
GI50 (UO-31 renal): 10.6 µM
TGI (UO-31 renal): 22.4 µM

CC(NC(=O)C(NC(=O)OC(C)(C)C)C(C)C)C(=O)N1CCCC1C(=O)O (stereo not drawn) (Boc-Val-Ala-Pro-OH; configuration not given here)
GI50 (HS 578T breast): 38.1 µg/mL
GI50 (SNB-75 CNS): 0.0101 µg/mL
TGI (SNB-75 CNS): 0.09 µg/mL
GI50 (UACC-62 melanoma): 36.2 µg/mL
